Values quoted from earlier work in paper PMC9516332 (Frontiers in Oncology, 2022).
Like-named read-outs stand apart in the source and are kept apart here.

What was measured:
Conditions in all cases: cited from earlier work
[1] = target: panel of 255 wild-type kinases (Homo sapiens, UniProt O94804)
[2] = target: panel of 255 wild-type kinases (Homo sapiens, UniProt P07332)
[3] = target: panel of 255 wild-type kinases (Homo sapiens, UniProt P07947)
[4] = target: panel of 255 wild-type kinases (Homo sapiens, UniProt P22607)
[5] = target: panel of 255 wild-type kinases (Homo sapiens, UniProt P31749)
[6] = target: panel of 255 wild-type kinases (Homo sapiens, UniProt P41240)
[7] = target: panel of 255 wild-type kinases (Homo sapiens, UniProt P43405)
[8] = target: panel of 255 wild-type kinases (Homo sapiens, UniProt P50750)
[9] = target: panel of 255 wild-type kinases (Homo sapiens, UniProt P54646)
[10] = target: panel of 255 wild-type kinases (Homo sapiens, UniProt Q00534)
[11] = target: panel of 255 wild-type kinases (Homo sapiens, UniProt Q04912)
[12] = target: T1, panel of 255 wild-type kinases (Homo sapiens, UniProt Q13976)
T1 sequence (Q13976 1-671): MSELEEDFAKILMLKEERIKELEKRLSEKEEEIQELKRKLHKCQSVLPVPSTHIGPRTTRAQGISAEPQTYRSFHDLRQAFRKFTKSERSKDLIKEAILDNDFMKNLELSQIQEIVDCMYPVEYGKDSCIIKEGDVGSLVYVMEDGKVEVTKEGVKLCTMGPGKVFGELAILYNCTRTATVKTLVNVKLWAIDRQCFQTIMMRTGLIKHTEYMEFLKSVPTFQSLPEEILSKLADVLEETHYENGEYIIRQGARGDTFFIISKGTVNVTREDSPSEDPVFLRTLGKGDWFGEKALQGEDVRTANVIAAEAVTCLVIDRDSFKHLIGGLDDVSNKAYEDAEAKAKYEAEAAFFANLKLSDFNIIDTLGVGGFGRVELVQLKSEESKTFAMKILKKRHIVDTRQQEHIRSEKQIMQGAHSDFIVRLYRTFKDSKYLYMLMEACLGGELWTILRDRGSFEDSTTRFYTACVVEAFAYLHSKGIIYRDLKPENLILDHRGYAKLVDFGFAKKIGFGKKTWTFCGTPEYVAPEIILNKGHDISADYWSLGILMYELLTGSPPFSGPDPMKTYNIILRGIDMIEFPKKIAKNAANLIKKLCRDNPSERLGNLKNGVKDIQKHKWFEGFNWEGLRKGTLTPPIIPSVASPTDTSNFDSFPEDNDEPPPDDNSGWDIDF

[13] = target: panel of 255 wild-type kinases (Homo sapiens, UniProt Q16512)
[14] = target: T2, panel of 255 wild-type kinases (Homo sapiens, UniProt Q9HBY8)
T2 sequence (Q9HBY8 1-367): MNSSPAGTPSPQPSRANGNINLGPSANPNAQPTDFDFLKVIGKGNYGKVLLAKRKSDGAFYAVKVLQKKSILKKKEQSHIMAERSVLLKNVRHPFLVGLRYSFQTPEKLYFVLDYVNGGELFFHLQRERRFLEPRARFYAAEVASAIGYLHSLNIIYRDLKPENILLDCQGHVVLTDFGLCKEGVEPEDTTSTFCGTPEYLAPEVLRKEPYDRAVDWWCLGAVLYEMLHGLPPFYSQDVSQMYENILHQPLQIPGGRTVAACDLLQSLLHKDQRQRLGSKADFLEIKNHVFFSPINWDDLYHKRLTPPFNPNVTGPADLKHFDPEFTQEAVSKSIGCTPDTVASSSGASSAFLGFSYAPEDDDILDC

[15] = target: panel of 255 wild-type kinases (Homo sapiens, UniProt Q9HCP0)
[16] = target: panel of 255 wild-type kinases (Homo sapiens, UniProt Q9P0L2)
[17] = kinase LOK, 1 µmol/L single concentration, ref DOI: 10.1371/journal.pone.0092146
[18] = kinase FES, 1 µmol/L single concentration, ref DOI: 10.1371/journal.pone.0092146
[19] = kinase YES, 1 µmol/L single concentration, ref DOI: 10.1371/journal.pone.0092146
[20] = kinase FGFR3, 1 µmol/L single concentration, ref DOI: 10.1371/journal.pone.0092146
[21] = AKT1 kinase assay, 1 µmol/L single concentration, ref DOI: 10.1371/journal.pone.0092146
[22] = kinase CSK, 1 µmol/L single concentration, ref DOI: 10.1371/journal.pone.0092146
[23] = kinase SYK, 1 µmol/L single concentration, ref DOI: 10.1371/journal.pone.0092146
[24] = CDK9/CycT1 kinase assay, 1 µmol/L single concentration, ref DOI: 10.1371/journal.pone.0092146
[25] = AMPKα2/β1/γ1 kinase assay, 1 µmol/L single concentration, ref DOI: 10.1371/journal.pone.0092146
[26] = CDK6/CycD3 kinase assay, 1 µmol/L single concentration, ref DOI: 10.1371/journal.pone.0092146
[27] = kinase RON, 1 µmol/L single concentration, ref DOI: 10.1371/journal.pone.0092146
[28] = kinase PGK, 1 µmol/L single concentration, ref DOI: 10.1371/journal.pone.0092146
[29] = kinase PKN1, 1 µmol/L single concentration, ref DOI: 10.1371/journal.pone.0092146
[30] = kinase SGK2, 1 µmol/L single concentration, ref DOI: 10.1371/journal.pone.0092146
[31] = kinase CK1γ1, 1 µmol/L single concentration, ref DOI: 10.1371/journal.pone.0092146
[32] = MARK1, 1 µmol/L single concentration, ref DOI: 10.1371/journal.pone.0092146
[33] = kinase LOK, 1 µmol/L single concentration, ref DOI: 10.1158/1535-7163.MCT-18-0877
[34] = kinase FES, 1 µmol/L single concentration, ref DOI: 10.1158/1535-7163.MCT-18-0877
[35] = kinase YES, 1 µmol/L single concentration, ref DOI: 10.1158/1535-7163.MCT-18-0877
[36] = kinase FGFR3, 1 µmol/L single concentration, ref DOI: 10.1158/1535-7163.MCT-18-0877
[37] = AKT1 kinase assay, 1 µmol/L single concentration, ref DOI: 10.1158/1535-7163.MCT-18-0877
[38] = kinase CSK, 1 µmol/L single concentration, ref DOI: 10.1158/1535-7163.MCT-18-0877
[39] = kinase SYK, 1 µmol/L single concentration, ref DOI: 10.1158/1535-7163.MCT-18-0877
[40] = CDK9/CycT1 kinase assay, 1 µmol/L single concentration, ref DOI: 10.1158/1535-7163.MCT-18-0877
[41] = AMPKα2/β1/γ1 kinase assay, 1 µmol/L single concentration, ref DOI: 10.1158/1535-7163.MCT-18-0877
[42] = CDK6/CycD3 kinase assay, 1 µmol/L single concentration, ref DOI: 10.1158/1535-7163.MCT-18-0877
[43] = kinase RON, 1 µmol/L single concentration, ref DOI: 10.1158/1535-7163.MCT-18-0877
[44] = kinase PGK, 1 µmol/L single concentration, ref DOI: 10.1158/1535-7163.MCT-18-0877
[45] = kinase PKN1, 1 µmol/L single concentration, ref DOI: 10.1158/1535-7163.MCT-18-0877
[46] = kinase SGK2, 1 µmol/L single concentration, ref DOI: 10.1158/1535-7163.MCT-18-0877
[47] = kinase CK1γ1, 1 µmol/L single concentration, ref DOI: 10.1158/1535-7163.MCT-18-0877
[48] = MARK1, 1 µmol/L single concentration, ref DOI: 10.1158/1535-7163.MCT-18-0877

Row | SMILES | %-inhibition at 1 µmol/L, LOK [1, 17] | %-inhibition at 1 µmol/L, FES [2, 18] | %-inhibition at 1 µmol/L, YES [3, 19] | %-inhibition at 1 µmol/L, FGFR3 [4, 20] | %-inhibition AKT1 [5, 21] | %-inhibition at 1 µmol/L, CSK [6, 22] | %-inhibition at 1 µmol/L, SYK [7, 23] | %-inhibition CDK9/CycT1 [8, 24] | %-inhibition AMPKα2/β1/γ1 [9, 25] | %-inhibition CDK6/CycD3 [10, 26] | %-inhibition at 1 µmol/L, RON [11, 27] | %-inhibition at 1 µmol/L, PGK [12, 28] | %-inhibition at 1 µmol/L, PKN1 [13, 29] | %-inhibition at 1 µmol/L, SGK2 [14, 30] | %-inhibition at 1 µmol/L, CK1γ1 [15, 31] | %-inhibition, MARK1 [16, 32] | %-inhibition at 1 µmol/L, LOK [1, 33] | %-inhibition at 1 µmol/L, FES [2, 34] | %-inhibition at 1 µmol/L, YES [3, 35] | %-inhibition at 1 µmol/L, FGFR3 [4, 36] | other results
1 | CCCS(=O)(=O)Nc1ccc(F)c(C(=O)c2c[nH]c3ncc(-c4ccc(Cl)cc4)cc23)c1F [vemurafenib] | -1% | 18% | 74% | 15% | -4.52% | 76% | -3.77% | 1.33% | 6.49% | 2.43% | -2% | -4.33% | -0.378% | 2.66% | -2% | -9% | – | – | – | – | –
2 | COc1cc(N2CCC(N3CCN(C)CC3)CC2)ccc1Nc1ncc(Cl)c(Nc2ccccc2P(C)(C)=O)n1 [brigatinib] | – | – | – | – | – | – | – | – | – | – | – | – | – | – | – | – | – | – | – | – | %-inhibition at 1 µmol/L, LOK [1]: 96%; %-inhibition at 1 µmol/L, FES [2]: 100%; %-inhibition at 1 µmol/L, YES [3]: 102%; %-inhibition at 1 µmol/L, FGFR3 [4]: 93%; %-inhibition AKT1 [5]: 1.5%; %-inhibition at 1 µmol/L, CSK [6]: 9%; %-inhibition at 1 µmol/L, SYK [7]: 68%; %-inhibition CDK9/CycT1 [8]: 5.35%; %-inhibition AMPKα2/β1/γ1 [9]: 90%; %-inhibition CDK6/CycD3 [10]: 18%; %-inhibition at 1 µmol/L, RON [11]: 18%; %-inhibition at 1 µmol/L, PGK [12]: 60%; %-inhibition at 1 µmol/L, PKN1 [13]: 77%; %-inhibition at 1 µmol/L, SGK2 [14]: -8%; %-inhibition at 1 µmol/L, CK1γ1 [15]: 1.13%; %-inhibition, MARK1 [16]: 96%
3 | CC(=O)Nc1cccc(-n2c(=O)n(C3CC3)c(=O)c3c(Nc4ccc(I)cc4F)n(C)c(=O)c(C)c32)c1 [trametinib] | 12% | -1.55% | -1.63% | -5.68% | -3% | -2.83% | -5% | -2.31% | 1.21% | -4.23% | -6.44% | -1.31% | 3.71% | -7% | 0.211% | -17% | – | – | – | – | –
4 | CC#CC(=O)N1CCC[C@H]1c1nc(-c2ccc(C(=O)Nc3ccccn3)cc2)c2c(N)nccn12 [acalabrutinib] | – | – | – | – | – | – | – | – | – | – | – | – | – | – | – | – | 3.37% | -6.35% | 22% | -1.31% | %-inhibition AKT1 [5, 37]: -6%; %-inhibition at 1 µmol/L, CSK [6, 38]: 7%; %-inhibition at 1 µmol/L, SYK [7, 39]: -19%; %-inhibition CDK9/CycT1 [8, 40]: 15%; %-inhibition AMPKα2/β1/γ1 [9, 41]: 3.5%; %-inhibition CDK6/CycD3 [10, 42]: 3%; %-inhibition at 1 µmol/L, RON [11, 43]: 8%; %-inhibition at 1 µmol/L, PGK [12, 44]: -3.7%; %-inhibition at 1 µmol/L, PKN1 [13, 45]: 11%; %-inhibition at 1 µmol/L, SGK2 [14, 46]: -19%; %-inhibition at 1 µmol/L, CK1γ1 [15, 47]: 0.334%; %-inhibition, MARK1 [16, 48]: -3.49%
5 | C=CC(=O)Nc1cc(Nc2nccc(-c3cn(C)c4ccccc34)n2)c(OC)cc1N(C)CCN(C)C [osimertinib] | – | – | – | – | – | – | – | – | – | – | – | – | – | – | – | – | 42% | 42% | 13% | 10% | %-inhibition AKT1 [5, 37]: -9%; %-inhibition at 1 µmol/L, CSK [6, 38]: 9%; %-inhibition at 1 µmol/L, SYK [7, 39]: -38%; %-inhibition CDK9/CycT1 [8, 40]: 0.721%; %-inhibition AMPKα2/β1/γ1 [9, 41]: 11%; %-inhibition CDK6/CycD3 [10, 42]: 0.62%; %-inhibition at 1 µmol/L, RON [11, 43]: 5.69%; %-inhibition at 1 µmol/L, PGK [12, 44]: 3.61%; %-inhibition at 1 µmol/L, PKN1 [13, 45]: 14%; %-inhibition at 1 µmol/L, SGK2 [14, 46]: 26%; %-inhibition at 1 µmol/L, CK1γ1 [15, 47]: 10%; %-inhibition, MARK1 [16, 48]: 19%
